Results: patent EP3634580B1, “COMPOSITIONS COMPRISING LACTULOSE FOR MAINTAINING OR IMPROVING GUT HEALTH IN HUMANS” (Fresenius Kabi Austria GmbH, priority 2017, dated 2018)

Assays:
Assay type in all cases: cell-based
[1] = system: colon microbiota of human origin; test: TNO Intestinal Model (TIM-2), in vitro model of the proximal colon: sodium hydroxide consumption; conditions: for Cumulative sodium hydroxide consumption: mean of n = 2
Protocol: (§1) Crystalline lactulose was administered daily for 5 days to the TNO Intestinal Model (TIM-2), an in vitro model of the proximal colon. NaOH consumption, short-chain fatty acids (SCFA) production, ammonia production as well as relative abundance of microbiota were analyzed.
(§2) The substance administered in this study was lactulose crystals (S.C.M. Società Chimica Mugello S.r.l., Vicchio, Italy). Experiments without the addition of lactulose served as negative control.
(§3) The TNO Intestinal Model (TIM-2) is a dynamic in vitro model of the proximal colon. The TIM-2 system was inoculated with a highly metabolically active colon microbiota of human origin. In the system the following standardized conditions were simulated: body temperature; pH in the lumen of the proximal colon (pH 5.8); delivery of a substrate from the 'ileum' (SIEM; Standardized Ileum Efflux Medium); mixing and transport of the intestinal contents; anaerobiosis; absorption of water and absorption of fermentation products, metabolites and other low molecular weight compounds (via a semipermeable membrane inside the colon model).
(§4) SIEM simulates material passing the ileocecal valve in humans. It contained the major non-digestible carbohydrates (pectin, xylan, arabinogalactan, amylopectin, starch) found in a normal western diet as well as protein (bactopepton, casein), ox-bile, Tween 80 as well as vitamins and minerals. SIEM was added to the system at a speed of 2.5 mL/h and the speed of the dialysis liquid was 1.5 mL/min. During the experiment, the intestinal contents were mixed continuously by the peristaltic movements of the TIM-2 system. In order to simulate the transit of the chime from proximal to distal colon, 25 mL of the lumen was removed every 24 h and discarded.
(§5) Before performing each experiment, the system was inoculated with a standardized microbiota of human origin. This standardized microbiota was prepared using fecal donations from a group of 4 healthy volunteers (3 females, 1 male, age 38.8 ± 3.9 years; BMI (body mass index) 24.2 ± 1.5 kg/m^2). Individuals provided signed informed consent before participation, were non-smokers and had not used antibiotics, prebiotics, probiotics or laxatives within 1 month before the stool donation.
(§6) At the start of the adaptation period the microbiota was allowed to adapt to the model conditions and SIEM for 16 h. After the adaptation period the 120 h test period started in which lactulose was added to TIM-2 once daily.
(§7) Lactulose was added to the system at daily doses of 2 g, 3 g, 4 g, and 5 g lactulose. Each dose as well as the control experiment was studied in duplicate (n = 2). The test period of the TIM-2 experiments lasted 120 h (5 consecutive days).
The pH was kept at a value of 5.8 by automatic titration with 2 M NaOH, the consumption of NaOH was monitored.

[2] = system: colon microbiota of human origin; test: TIM-2 in vitro model of the proximal colon: short-chain fatty acids (SCFA) production; conditions: for Cumulative production of butyrate / Cumulative production of total short chain fatty acids (SCFA): mean of n = 2
Protocol: as §1, §2, §3, §4, §5, §6, §7
(§8) Metabolites like the short-chain fatty acids (SCFA) and ammonia produced in TIM-2 were continuously removed from the lumen by a semipermeable membrane unit. This dialysate was collected at the start of the test period and after 24, 48, 72, 96, and 120 h.
The lumen and dialysate fractions of TIM-2 were analyzed using gas chromatography for SCFA (acetate, propionate and butyrate). Dialysate samples were directly used. Lumen samples were centrifuged (12,000 rpm at 4 °C for 10 min).

[3] = system: colon microbiota of human origin; test: TIM-2 in vitro model of the proximal colon: ammonia production; conditions: for ammonia production (in words): daily doses of 2 g, 3 g, 4 g, 5 g, 120 h test period, versus control; for Cumulative ammonia production: mean of n = 2
Protocol: as §1, §2, §3, §4, §5, §6, §7, §8
Samples for ammonia analysis were centrifuged as described above. Ammonia was determined based on the Berthelot reaction.

[4] = daily doses of 2 g, 3 g, 4 g, 5 g, 120 h test period, versus control
[5] = lactulose 2 g daily, 0 h (values at the start set to zero), control 0
[6] = lactulose 3 g daily, 0 h (values at the start set to zero), control 0
[7] = lactulose 4 g daily, 0 h (values at the start set to zero), control 0
[8] = lactulose 5 g daily, 0 h (values at the start set to zero), control 0

## OC[C@H]1O[C@@H](O[C@@H]2[C@@H](CO)OC(O)(CO)[C@H]2O)[C@H](O)[C@@H](O)[C@H]1O (mixture of isomers) [Lactulose, lactulose]
[1]; [4]
  use of NaOH (in words): dose dependent increased use of NaOH
[1]; lactulose 2 g daily, 0 h, control 19
  Cumulative sodium hydroxide consumption: 19 mL
[1]; lactulose 2 g daily, 24 h, control 48
  Cumulative sodium hydroxide consumption: 58 mL
[1]; lactulose 2 g daily, 48 h, control 71
  Cumulative sodium hydroxide consumption: 89 mL
[1]; lactulose 2 g daily, 72 h, control 90
  Cumulative sodium hydroxide consumption: 115 mL
[1]; lactulose 2 g daily, 96 h, control 107
  Cumulative sodium hydroxide consumption: 139 mL
[1]; lactulose 2 g daily, 120 h, control 125
  Cumulative sodium hydroxide consumption: 162 mL
[1]; lactulose 3 g daily, 0 h, control 19
  Cumulative sodium hydroxide consumption: 20 mL
[1]; lactulose 3 g daily, 24 h, control 48
  Cumulative sodium hydroxide consumption: 65 mL
[1]; lactulose 3 g daily, 48 h, control 71
  Cumulative sodium hydroxide consumption: 105 mL
[1]; lactulose 3 g daily, 72 h, control 90
  Cumulative sodium hydroxide consumption: 136 mL
[1]; lactulose 3 g daily, 96 h, control 107
  Cumulative sodium hydroxide consumption: 169 mL
[1]; lactulose 3 g daily, 120 h, control 125
  Cumulative sodium hydroxide consumption: 202 mL
[1]; lactulose 4 g daily, 0 h, control 19
  Cumulative sodium hydroxide consumption: 20 mL
[1]; lactulose 4 g daily, 24 h, control 48
  Cumulative sodium hydroxide consumption: 72 mL
[1]; lactulose 4 g daily, 48 h, control 71
  Cumulative sodium hydroxide consumption: 113 mL
[1]; lactulose 4 g daily, 72 h, control 90
  Cumulative sodium hydroxide consumption: 151 mL
[1]; lactulose 4 g daily, 96 h, control 107
  Cumulative sodium hydroxide consumption: 185 mL
[1]; lactulose 4 g daily, 120 h, control 125
  Cumulative sodium hydroxide consumption: 223 mL
[1]; lactulose 5 g daily, 0 h, control 19
  Cumulative sodium hydroxide consumption: 18 mL
[1]; lactulose 5 g daily, 24 h, control 48
  Cumulative sodium hydroxide consumption: 69 mL
[1]; lactulose 5 g daily, 48 h, control 71
  Cumulative sodium hydroxide consumption: 117 mL
[1]; lactulose 5 g daily, 72 h, control 90
  Cumulative sodium hydroxide consumption: 157 mL
[1]; lactulose 5 g daily, 96 h, control 107
  Cumulative sodium hydroxide consumption: 193 mL
[1]; lactulose 5 g daily, 120 h, control 125
  Cumulative sodium hydroxide consumption: 223 mL
[2]; [4]
  SCFA production (in words): increased the levels
  levels of butyrate (in words): increased the levels
[2]; daily doses of 2 g, 3 g, 4 g, 5 g, 120 h test period, versus control, listed as lactulose
  SCFA production (in words): higher SCFA production as compared to the control
[2]; [5]
  Cumulative production of butyrate: 0 mmol
  Cumulative production of total short chain fatty acids (SCFA): 0 mmol
[2]; lactulose 2 g daily, 24 h, control 7
  Cumulative production of butyrate: 14 mmol
[2]; lactulose 2 g daily, 24 h, control 62
  Cumulative production of total short chain fatty acids (SCFA): 85 mmol
[2]; lactulose 2 g daily, 48 h, control 18
  Cumulative production of butyrate: 27 mmol
[2]; lactulose 2 g daily, 48 h, control 129
  Cumulative production of total short chain fatty acids (SCFA): 163 mmol
[2]; lactulose 2 g daily, 72 h, control 31
  Cumulative production of butyrate: 39 mmol
[2]; lactulose 2 g daily, 72 h, control 194
  Cumulative production of total short chain fatty acids (SCFA): 234 mmol
[2]; lactulose 2 g daily, 96 h, control 44
  Cumulative production of butyrate: 52 mmol
[2]; lactulose 2 g daily, 96 h, control 257
  Cumulative production of total short chain fatty acids (SCFA): 318 mmol
[2]; lactulose 2 g daily, 120 h, control 58
  Cumulative production of butyrate: 69 mmol
[2]; lactulose 2 g daily, 120 h, control 320
  Cumulative production of total short chain fatty acids (SCFA): 403 mmol
[2]; [6]
  Cumulative production of butyrate: 0 mmol
  Cumulative production of total short chain fatty acids (SCFA): 0 mmol
[2]; lactulose 3 g daily, 24 h, control 7
  Cumulative production of butyrate: 12 mmol
[2]; lactulose 3 g daily, 24 h, control 62
  Cumulative production of total short chain fatty acids (SCFA): 85 mmol
[2]; lactulose 3 g daily, 48 h, control 18
  Cumulative production of butyrate: 27 mmol
[2]; lactulose 3 g daily, 48 h, control 129
  Cumulative production of total short chain fatty acids (SCFA): 175 mmol
[2]; lactulose 3 g daily, 72 h, control 31
  Cumulative production of butyrate: 40 mmol
[2]; lactulose 3 g daily, 72 h, control 194
  Cumulative production of total short chain fatty acids (SCFA): 256 mmol
[2]; lactulose 3 g daily, 96 h, control 44
  Cumulative production of butyrate: 54 mmol
[2]; lactulose 3 g daily, 96 h, control 257
  Cumulative production of total short chain fatty acids (SCFA): 340 mmol
[2]; lactulose 3 g daily, 120 h, control 58
  Cumulative production of butyrate: 68 mmol
[2]; lactulose 3 g daily, 120 h, control 320
  Cumulative production of total short chain fatty acids (SCFA): 427 mmol
[2]; [7]
  Cumulative production of butyrate: 0 mmol
  Cumulative production of total short chain fatty acids (SCFA): 0 mmol
[2]; lactulose 4 g daily, 24 h, control 7
  Cumulative production of butyrate: 12 mmol
[2]; lactulose 4 g daily, 24 h, control 62
  Cumulative production of total short chain fatty acids (SCFA): 97 mmol
[2]; lactulose 4 g daily, 48 h, control 18
  Cumulative production of butyrate: 30 mmol
[2]; lactulose 4 g daily, 48 h, control 129
  Cumulative production of total short chain fatty acids (SCFA): 216 mmol
[2]; lactulose 4 g daily, 72 h, control 31
  Cumulative production of butyrate: 47 mmol
[2]; lactulose 4 g daily, 72 h, control 194
  Cumulative production of total short chain fatty acids (SCFA): 310 mmol
[2]; lactulose 4 g daily, 96 h, control 44
  Cumulative production of butyrate: 70 mmol
[2]; lactulose 4 g daily, 96 h, control 257
  Cumulative production of total short chain fatty acids (SCFA): 405 mmol
[2]; lactulose 4 g daily, 120 h, control 58
  Cumulative production of butyrate: 93 mmol
[2]; lactulose 4 g daily, 120 h, control 320
  Cumulative production of total short chain fatty acids (SCFA): 500 mmol
[2]; [8]
  Cumulative production of butyrate: 0 mmol
  Cumulative production of total short chain fatty acids (SCFA): 0 mmol
[2]; lactulose 5 g daily, 24 h, control 7
  Cumulative production of butyrate: 8 mmol
[2]; lactulose 5 g daily, 24 h, control 62
  Cumulative production of total short chain fatty acids (SCFA): 84 mmol
[2]; lactulose 5 g daily, 48 h, control 18
  Cumulative production of butyrate: 29 mmol
[2]; lactulose 5 g daily, 48 h, control 129
  Cumulative production of total short chain fatty acids (SCFA): 214 mmol
[2]; lactulose 5 g daily, 72 h, control 31
  Cumulative production of butyrate: 53 mmol
[2]; lactulose 5 g daily, 72 h, control 194
  Cumulative production of total short chain fatty acids (SCFA): 309 mmol
[2]; lactulose 5 g daily, 96 h, control 44
  Cumulative production of butyrate: 84 mmol
[2]; lactulose 5 g daily, 96 h, control 257
  Cumulative production of total short chain fatty acids (SCFA): 430 mmol
[2]; lactulose 5 g daily, 120 h, control 58
  Cumulative production of butyrate: 118 mmol
[2]; lactulose 5 g daily, 120 h, control 320
  Cumulative production of total short chain fatty acids (SCFA): 520 mmol
[3]
  ammonia production (in words): decreased the levels
[3]; listed as lactulose
  ammonia production (in words): decreased mean ammonia production
[3]; lactulose 2 g daily, 0 h, control 0
  Cumulative ammonia production: 0 mmol
[3]; lactulose 2 g daily, 24 h, control 10
  Cumulative ammonia production: 9 mmol
[3]; lactulose 2 g daily, 48 h, control 31
  Cumulative ammonia production: 29 mmol
[3]; lactulose 2 g daily, 72 h, control 55
  Cumulative ammonia production: 48 mmol
[3]; lactulose 2 g daily, 96 h, control 82
  Cumulative ammonia production: 68 mmol
[3]; lactulose 2 g daily, 120 h, control 108
  Cumulative ammonia production: 88 mmol
[3]; lactulose 3 g daily, 0 h, control 0
  Cumulative ammonia production: 0 mmol
[3]; lactulose 3 g daily, 24 h, control 10
  Cumulative ammonia production: 9 mmol
[3]; lactulose 3 g daily, 48 h, control 31
  Cumulative ammonia production: 26 mmol
[3]; lactulose 3 g daily, 72 h, control 55
  Cumulative ammonia production: 45 mmol
[3]; lactulose 3 g daily, 96 h, control 82
  Cumulative ammonia production: 64 mmol
[3]; lactulose 3 g daily, 120 h, control 108
  Cumulative ammonia production: 85 mmol
[3]; lactulose 4 g daily, 0 h, control 0
  Cumulative ammonia production: 0 mmol
[3]; lactulose 4 g daily, 24 h, control 10
  Cumulative ammonia production: 6 mmol
[3]; lactulose 4 g daily, 48 h, control 31
  Cumulative ammonia production: 15 mmol
[3]; lactulose 4 g daily, 72 h, control 55
  Cumulative ammonia production: 25 mmol
[3]; lactulose 4 g daily, 96 h, control 82
  Cumulative ammonia production: 38 mmol
[3]; lactulose 4 g daily, 120 h, control 108
  Cumulative ammonia production: 51 mmol
[3]; lactulose 5 g daily, 0 h, control 0
  Cumulative ammonia production: 0 mmol
[3]; lactulose 5 g daily, 24 h, control 10
  Cumulative ammonia production: 5 mmol
[3]; lactulose 5 g daily, 48 h, control 31
  Cumulative ammonia production: 12 mmol
[3]; lactulose 5 g daily, 72 h, control 55
  Cumulative ammonia production: 22 mmol
[3]; lactulose 5 g daily, 96 h, control 82
  Cumulative ammonia production: 32 mmol
[3]; lactulose 5 g daily, 120 h, control 108
  Cumulative ammonia production: 41 mmol
